# Source: US11571418B2, “Platinum compounds that inhibit constitutive STAT3 signaling and induce cell cycle arrest and apoptosis of malignant cells” (H. LEE MOFFITT CANCER CENTER AND RESEARCH INSTITUTE, INC., priority 2011, dated 2023)
# How the values were obtained:
# E2F1 = target: T1, E2F1 (Homo sapiens, UniProt Q01094); assay: Non-STAT protein added to activated Stat3 before EMSA (titration of compound); format: binding
# T1 construct: made in house; host or cells: Sf-9 insect cells infected with baculovirus
# T1 sequence (Q01094 whole entry, species assumed): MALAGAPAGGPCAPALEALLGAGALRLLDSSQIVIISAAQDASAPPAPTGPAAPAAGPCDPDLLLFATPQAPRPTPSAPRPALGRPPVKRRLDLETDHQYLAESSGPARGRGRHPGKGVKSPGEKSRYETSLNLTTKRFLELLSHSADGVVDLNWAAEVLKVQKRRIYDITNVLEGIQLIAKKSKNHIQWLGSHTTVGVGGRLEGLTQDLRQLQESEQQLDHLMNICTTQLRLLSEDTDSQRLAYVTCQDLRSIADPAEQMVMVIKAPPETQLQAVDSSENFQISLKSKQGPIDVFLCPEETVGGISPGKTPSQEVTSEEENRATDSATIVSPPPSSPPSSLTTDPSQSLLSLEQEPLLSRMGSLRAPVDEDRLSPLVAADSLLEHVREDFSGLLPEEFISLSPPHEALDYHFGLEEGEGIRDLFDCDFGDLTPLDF
# Stat5 = assay: In vitro Stat5 DNA-binding activity assay, EMSA with MGFe probe; design: species or system mouse; details: pre-incubated 30 min before MGFe probe
# Description: FIGS. 1A-1E. Inhibition of in vitro Stat3 DNA-binding activity by a platinum complex. Nuclear extracts or cell lysates containing activated Stat1, Stat3 and Stat5, or E2F1 prepared from NIH3T3/hEGFR that are stimulated with EGF or Sf-9 insect cells that are infected with baculovirus expressing Stat1, Stat3, Stat5, or E2F1, respectively, were treated with or without the indicated concentrations of platinum complex, PLATINUM-401 or Cisplatin, for 30 min at room temperature prior to incubation with radiolabeled oligonucleotide probes, and subjected to EMSA analysis. (FIG. 1A) (i) Stat1 and Stat3 binding activities to hSIE probe, (ii) Stat1 and Stat5 binding activities to MGFe probe, and (iii) plot of % oligonucleotide probe-STAT:STAT complexes versus concentration of PLATINUM-401. […] Positions of STAT: STAT-DNA complexes in gel are labeled. In (A) to (C), the control lanes represent DMSO (vehicle)-treatment.
# Nuclear extract preparation and gel shift assays—Nuclear extract preparation from NIH3T3 stimulated by rhIL-6, NIH3T3/hEGFR stimulated by rhEGF, v-Src-transformed fibroblasts (NIH3T3/v-Src) or tumor cell lines and electrophoretic mobility shift assay were carried out as previously described (Turkson et al., 1998; Garcia et al., 1997; Yu et al., 1995). […]
# Cyclin D1 = Cyclin D1 detection, in situ and Western blot; format: cell-based, mouse; details: NIH3T3/v-Src, 48 h
# Description: FIGS. 8A and 8B. Inhibition of Cyclin D1 and Bcl-xL induction by PLATINUM-401. Viral Src-transformed fibroblasts (NIH3T3/v-Src) and human breast cancer cell line MDA-MB-435 that contain constitutively-activated Stat3 were treated with or without platinum complex for 48 h. Cells were processed for immunohistochemistry, or cell lysates were prepared from cells and subjected to 5% PAGE and Western blot analysis, as indicated in “Materials and Methods.” (FIG. 8A) Detection of Cyclin D1; (FIG. 8B) Detection of Bcl-xL. Positions of Cyclin D1 and Bcl-xL proteins are shown. Beta-actin levels are shown for normalizing for equal total protein. Data are representative of 3 independent determinations.
# Western blot—Whole-cell lysates were prepared in boiling sodium dodecyl sulfate (SDS) sample-loading buffer to extract total proteins from the cytoplasm and nucleus. Equivalent amounts of total cellular protein were electrophoresed on an SDS-10% polyacrylamide gel and transferred onto nitrocellulose membranes. Probing of nitrocellulose membranes with primary antibodies and detection of horseradish peroxidase-conjugated secondary antibodies by enhanced chemiluminescence (Amersham, Piscataway, N.J.) were performed as previously described (Garcia et al., 2001; Turkson et al., 2004b; Zhang et al., 2000). […]
smiles,measurement,setting,value
CC(O)CN1CCN(CC(C)O)CC1 (stereo not drawn) [PLATINUM-401],influence of E2F1 protein on compound's effect on Stat3 DNA-binding activity,E2F1,failed to significantly influence
same,effect on DNA-binding activity of Stat5:Stat5 dimer,Stat5,does not significantly affect
same,Cyclin D1 level,Cyclin D1,significantly diminished
